Key:
[1] = tested on: pentylenetetrazole-induced seizures; experiment: Subcutaneous Metrazol seizure test (scMET); format: in vivo; conditions: mouse, in vivo
Experimental: A dose of subcutaneous pentylenetetrazole (Metrazole, MET) which induces convulsions in 97% of animals (CD97: 85 mg/kg mice or 56.4 mg/kg rats) was injected into a loose fold of skin at the neck. Animals were placed in isolation cages and observed for 30 min for the occurrence of clonic spasms persisting for at least 5 s.

[2] = tested on: 6-Hz psychomotor seizures; experiment: 6-Hz psychomotor seizure test (ASP); format: in vivo, mice; conditions: Mus musculus, po, orally administered
Experimental: Seizures characterized by a minimal clonic phase followed by stereotyped automatistic behaviors (jaw chomping and whisker movement) were induced in mice by a low frequency (6 Hz), long-duration (3 s) stimulus. These seizures resemble automatistic behavior in patients with complex partial seizures. At varying times (0.25, 0.5, 1, 2, and 4 h) after drug treatment, individual mice (four at each time point) were challenged with sufficient current (32 or 44 mA at 6 Hz for 3 s) delivered through corneal electrodes to elicit a psychomotor seizure. Animals not displaying this behavior are considered protected.

[3] = tested on: MES-induced seizures; experiment: MES seizure test, CF-1 mice, compounds given i.p. as solution; format: in vivo
Experimental: MES assays were performed at the Department of Neurology at the University of California with CF-1 mice. This study was approved by the University of California, Davis, Animal Use and Care Committee and conducted in accordance with the guidelines of Animal Use and Care of the National Institutes of Health and the University of California. For these assays, stock solutions of SKA-19 (5 mg/ml) were prepared in 5% CremophorEL (Sigma-Aldrich, St. Louis, Mo., USA) and 95% saline, diluted further with saline, and SKA-19 was administered i.p. in a volume of 10 ml/kg body weight. Animals were subjected to a 0.2-s, 60-Hz electrical stimulus through corneal electrodes (5 mm diameter stainless steel balls). The electroshock unit was adjusted to deliver a constant current of 50 mA. Immediately before stimulation, the corneal electrodes were wetted with saline to provide good electrical contact. Animals failing to show tonic hindlimb extension were scored as protected (Kokate et al., 1994).
The mouse maximal electroshock (MES) and 6 Hz seizure models were used. Motor toxicity was assessed using a modification of the horizontal screen test. ED50 values in the seizure models and TD50 values in the toxicity test were determined by nonlinear fitting of dose-response curves. […] Drugs solutions were injected intraperitoneally 10 min prior to administration of the electrical stimulus in a volume of 10 ml/kg body weight.

[4] = tested on: MES-induced seizures; experiment: Maximal electroshock (MES) seizure test, rats (ASP, methylcellulose suspension); format: in vivo
Experimental: (§1) SKA-19 was tested under the auspices of the National Institutes of Health's Anticonvulsant Screening Program (ASP). Experiments were performed in male albino CF (Carworth Farms) No. 1 mice or Sprague-Dawley rats according to the established protocols of the ASP (White et al., 2002). SKA-19 was suspended in 0.5% methylcellulose and administered in a volume that permits accuracy of dosage without excessively contributing to total body fluid (0.01 ml/g body weight for mice and 0.04 ml/10 g body weight for rats).
(§2) Animals received an electrical stimulus of 0.2 s duration (50 mA in mice and 150 mA in rat at 60 Hz) delivered via corneal electrodes primed with an electrolyte solution containing 0.5% tetracaine. Animals were restrained by hand and released immediately after stimulation to permit observation of the seizure throughout its entire course. In the initial screens to identify anticonvulsant activity mice were tested at 30 minutes and 4 hours following doses of 3, 10, 30, 100 and 300 mg/kg of SKA-19 and rats tested at time intervals between 0.25 and 4 hours following a standard oral dose of 30 mg/kg. In the subsequent, more quantitative tests at least four doses of SKA-19 (n=8 per dose) were tested at the previously determined time of peak effect (TPE). Abolition of hindlimb tonic extension indicates the test compound's ability to inhibit MES-induced seizure spread. Tonic extension is considered abolished if the hind limbs are not fully extended at 180° with the body.

[5] = tested on: MES-induced seizures; experiment: Maximal electroshock (MES) seizure test, mice (ASP, methylcellulose suspension); format: in vivo; conditions: Mus musculus, ip; mice, i.p., methylcellulose suspension, time of peak effect (SKA-19: 2 h); read-out: ED50, seizure protection in the MES test
Experimental: as §1, §2

[6] = tested on: CA1 pyramidal neurons; experiment: Hippocampal slice recordings; format: cell-based, mouse; conditions: 10 μM, 1-s current injections (150 pA)
Experimental: Brain slice preparation was approved by the University of California, Irvine, Institutional Animal Care and Use Committee. Male C57BL/6 J mice (postnatal day 23) were anesthetized with halothane, decapitated, and brains transferred to an ice-cold, sucrose artificial cerebral spinal fluid (ACSF; Sigma-Aldrich). Hippocampal slices (300 μm) were prepared using a Leica VT1200S vibrating blade microtome (Leica Microsystems Inc., Buffalo Grove, Ill.). Slices were incubated at 33° C. in oxygenated (95% O2, 5% CO2) standard ACSF containing the following (mM) for at least 1 h before recordings: 126 NaCl, 2.5 KCl, 1.25 NaHPO4, 1.2 MgSO4, 10 glucose, 1.2 CaCl2, and 26 NaHCO3. Slices were submerged and continuously perfused at 2 ml/min with oxygenated ACSF at 33° C. during the current-clamp experiments. Voltage-clamp experiments were performed in the same ACSF but with 1 mM tetraethylammonium chloride (Sigma-Aldrich) and 0.5 μM tetrodotoxin (Sigma-Aldrich) added. Pyramidal CA1 neurons were visualized and identified with an upright microscope (Zeiss Axioskop Plus; Zeiss Jena, Germany) with infrared differential interference contrast optics. Recording pipettes (2-5 MΩ) were filled with intracellular solution containing (in mM): 126 K-gluconate; 4 KCl; 10 HEPES; 2 Mg-adenosine triphosphate; 0.3 Tris-guanosine triphosphate; 10 phosphocreatine, pH 7.20, 270-290 mOsm. In the current-clamp mode, depolarizing current pulses were applied from a membrane potential of −65 mV to evoke tonic firing activity. In the voltage-clamp mode, neurons were held at −55 mV and KCa currents elicited by 50-ms voltage steps to 10 mV, applied every 10 s. SKA-19 or NS309 were perfused for 10 min into the bath to allow for equilibrium. Recordings were performed in the whole-cell mode using a MultiClamp 700B amplifier (Molecular Devices), […] and sampled at 20 kHz with a Digidata 1322A digitizer (Molecular Devices). Data were acquired and analyzed with pClamp 10.2 software (Molecular Devices).

Compound: Nc1nc2ccc(OC(F)(F)F)cc2s1 [riluzole, 2-amino-6-(trifluoromethoxy)benzothiazole, reference compound]
- activity in the scMET test [1]: no significant activity
- ED50 ([2]; 32 mA, 0.5-h time point): 10.1 mg/kg
- ED50 ([2]; 44 mA, 1-h time point): 11.5 mg/kg
- duration of protection ([3]; 10 mg/kg i.p. as solution): ≤ 45 min
- duration of protective activity ([3]; MES test, 10 mg/kg i.p. as solution): < 1 h
- ED50 ([3]; Mus musculus, ip, 10 min, i.p. as solution, 10 min time point, read-out: ED50, seizure protection in the MES test): 5.37 mg/kg
- onset of protection from seizures after application ([3]; i.p. as solution): ≤ 5 min
- protection from MES induced seizures, initial screen ([4]; 30 mg/kg i.p.): completely protected
- ED50 ([4]; Rattus norvegicus, oral (SKA-19: 4 h time point), read-out: ED50, seizure protection in the MES test): 2.64 mg/kg
- ED50 [5]: 4.07 mg/kg

Compound: NS309 [reference compound]
- termination of firing during the ongoing current train [6]: did not terminate firing
- effect on AP firing frequency ([6]; holding potential -65 mV): reduced AP firing frequency
